Our source for the IC50 values is patent US10640506B2, “Cyclobutyl substituted pyrrolopyridine and pyrrolopyrimidines derivatives as JAK inhibitors” (Incyte Corporation, priority 2010, dated 2020).

Experiment [1] addresses human JAK1 (a.a. 837-1142) (Homo sapiens, UniProt P23458). In words: In vitro JAK kinase assay (HTRF, phosphorylation of biotinylated peptide), JAK1. The class given is biochemical. As to conditions: 1 mM ATP. The procedure, abridged: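 His-tagged human JAK1 catalytic domain (a.a. 837-1142), baculovirus/insect-cell expressed, phosphorylates a biotinylated peptide for 1 h at room temperature. Reaction stopped with EDTA; product detected by HTRF (SA-APC, Eu-Py20, 40 min binding). IC50 reported as ranges.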
(In general: In TR-FRET formats the signal depends on donor and acceptor labels being close together.)

The target in another experiment is T1, JAK2 (a.a. 828-1132) (Homo sapiens, UniProt O60674).
T1 construct: JAK2 (a.a. 828-1132); His tag (N)
T1 sequence (O60674 828-1132): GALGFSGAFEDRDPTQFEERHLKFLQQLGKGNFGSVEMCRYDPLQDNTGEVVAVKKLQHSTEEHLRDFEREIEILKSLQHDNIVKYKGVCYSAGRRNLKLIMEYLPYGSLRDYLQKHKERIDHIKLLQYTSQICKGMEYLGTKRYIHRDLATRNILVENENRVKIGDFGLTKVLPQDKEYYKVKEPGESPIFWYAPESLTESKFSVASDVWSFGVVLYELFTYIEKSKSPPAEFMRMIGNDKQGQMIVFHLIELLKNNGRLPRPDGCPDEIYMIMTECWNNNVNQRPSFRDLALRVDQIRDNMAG
The experiment is described as follows: In vitro JAK kinase assay (HTRF, phosphorylation of biotinylated peptide), JAK2. The class given is biochemical. As to conditions: 1 mM ATP. The procedure, abridged: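 His-tagged catalytic domains of human JAK1 (a.a. 837-1142) and JAK2 (a.a. 828-1132), baculovirus-expressed, phosphorylate a biotinylated peptide for 1 hour at room temperature. Stopped with EDTA; detected by HTRF using SA-APC and Eu-Py20 antibody after 40 min binding; values binned as ranges.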

SMILES strings stand for the structures. Read-outs that look alike come from different tables or passages of the source.

Chain of human JAK1 (a.a. 837-1142) (P23458 849-1154): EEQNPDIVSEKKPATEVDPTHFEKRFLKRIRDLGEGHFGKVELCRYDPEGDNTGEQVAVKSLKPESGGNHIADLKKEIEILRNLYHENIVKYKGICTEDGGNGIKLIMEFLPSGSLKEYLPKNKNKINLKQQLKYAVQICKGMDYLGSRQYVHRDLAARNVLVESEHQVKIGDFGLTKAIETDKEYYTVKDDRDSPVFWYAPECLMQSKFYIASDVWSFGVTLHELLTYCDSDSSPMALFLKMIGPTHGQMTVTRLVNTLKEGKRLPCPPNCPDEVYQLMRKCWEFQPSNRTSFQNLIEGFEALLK

As for `C[C@H](NC(=O)N1CCN([C@H]2C[C@](CC#N)(n3cc(-c4ncnc5[nH]ccc45)cn3)C2)CC1)C(F)(F)F` [Example 114, 4-{trans-3-(cyanomethyl)-3-[4-(7H-pyrrolo[2,3-d]pyrimidin-4-yl)-1H-pyrazol-1-yl]cyclobutyl}-N-[(1S)-2,2,2-trifluoro-1-methylethyl]piperazine-1-carboxamide], the IC50 (in general, the concentration at which inhibition is half-maximal) in experiment [1] (Table F) was less than 10 nM; against JAK2 (a.a. 828-1132) (Table F) it was greater than 100 nM.

With `N#CC[C@]1(n2cc(-c3ncnc4[nH]ccc34)cn2)C[C@@H](N2CCN(C(=O)c3ccnc(C(F)F)c3F)CC2)C1` [Example 11a, {cis-3-{4-[2-(difluoromethyl)-3-fluoroisonicotinoyl]piperazin-1-yl}-1-[4-(7H-pyrrolo[2,3-d]pyrimidin-4-yl)-1H-pyrazol-1-yl]cyclobutyl}acetonitrile], the IC50 in experiment [1] (Table A, read-out: JAK1 IC50) is 10 to 25 nM; on JAK2 (a.a. 828-1132) (Table A, read-out: JAK2 IC50), greater than 100 nM.

For `N#CC[C@]1(n2cc(-c3ncnc4[nH]ccc34)cn2)C[C@H](N2CCN(C(=O)c3cc(CN)cc(C(F)(F)F)n3)CC2)C1` [Example 67, {trans-3-(4-{[4-(aminomethyl)-6-(trifluoromethyl)pyridin-2-yl]carbonyl}piperazin-1-yl)-1-[4-(7H-pyrrolo[2,3-d]pyrimidin-4-yl)-1H-pyrazol-1-yl]cyclobutyl}acetonitrile], the IC50 in experiment [1] (Table F) is less than 10 nM; at JAK2 (a.a. 828-1132) (Table F), 25 to 100 nM.

On to `CCN(C)C(=O)N1CCN([C@H]2C[C@](CC#N)(n3cc(-c4ncnc5[nH]ccc45)cn3)C2)CC1` [Example 38, 4-{trans-3-(cyanomethyl)-3-[4-(7H-pyrrolo[2,3-d]pyrimidin-4-yl)-1H-pyrazol-1-yl]cyclobutyl}-N-ethyl-N-methylpiperazine-1-carboxamide], for which the IC50 is less than 10 nM in experiment [1] (Table B, read-out: JAK1 IC50) and 25 to 100 nM on JAK2 (a.a. 828-1132) (Table B, read-out: JAK2 IC50).

For the compound `[2H][C@]1(N2CCN(C(=O)c3ccnc(C(F)(F)F)n3)CC2)C[C@@](CC#N)(n2cc(-c3ncnc4[nH]ccc34)cn2)C1` [Example 30, [cis-1-[4-(7H-pyrrolo[2,3-d]pyrimidin-4-yl)-1H-pyrazol-1-yl]-3-(4-{[2-(trifluoromethyl)pyrimidin-4-yl]carbonyl}piperazin-1-yl)cyclobutyl]acetonitrile-d1], the IC50 in experiment [1] (Table C, read-out: JAK1 IC50) was less than 10 nM; at JAK2 (a.a. 828-1132) (Table C, read-out: JAK2 IC50), greater than 100 nM.

Consider `CN(C)Cc1cc(CN2CCN([C@H]3C[C@@](CC#N)(n4cc(-c5ncnc6[nH]ccc56)cn4)C3)CC2)cc(C(F)(F)F)c1` [Example 46, {cis-3-{4-[3-[(dimethylamino)methyl]-5-(trifluoromethyl)benzyl]piperazin-1-yl}-1-[4-(7H-pyrrolo[2,3-d]pyrimidin-4-yl)-1H-pyrazol-1-yl]cyclobutyl}acetonitrile], for which the IC50 in experiment [1] (Table F) was 25 to 100 nM; on JAK2 (a.a. 828-1132) (Table F), greater than 100 nM.

Take `CC[C@@H](C)NC(=O)N1CCN([C@H]2C[C@@](CC#N)(n3cc(-c4ncnc5[nH]ccc45)cn3)C2)CC1` [Example 105, 4-{cis-3-(cyanomethyl)-3-[4-(7H-pyrrolo[2,3-d]pyrimidin-4-yl)-1H-pyrazol-1-yl]cyclobutyl}-N-[(1R)-1-methylpropyl]piperazine-1-carboxamide]: the IC50 in experiment [1] (Table F) was 10 to 25 nM; against JAK2 (a.a. 828-1132) (Table F), 25 to 100 nM.

As for `N#CC[C@]1(n2cc(-c3ncnc4[nH]ccc34)cn2)C[C@H](N2CCC(Oc3cc(CO)cc(C(F)(F)F)n3)CC2)C1` (single isomer, unassigned) [Example 123, {trans-3-(4-{[4-(hydroxymethyl)-6-(trifluoromethyl)pyridin-2-yl]oxy}piperidin-1-yl)-1-[4-(7H-pyrrolo[2,3-d]pyrimidin-4-yl)-1H-pyrazol-1-yl]cyclobutyl}acetonitrile], the results for the IC50 (in experiment [1] (Table F); on JAK2 (a.a. 828-1132) (Table F)) were less than 10 nM and greater than 100 nM, respectively.

`N#CC[C@]1(n2cc(-c3ncnc4[nH]ccc34)cn2)C[C@H](N2CCC(Oc3cc(CN4CC(O)C4)cc(C(F)(F)F)n3)CC2)C1` [Example 157, {trans-3-(4-{[4-[(3-hydroxyazetidin-1-yl)methyl]-6-(trifluoromethyl)pyridin-2-yl]oxy}piperidin-1-yl)-1-[4-(7H-pyrrolo[2,3-d]pyrimidin-4-yl)-1H-pyrazol-1-yl]cyclobutyl}acetonitrile]: the IC50 in experiment [1] (Table F) was less than 10 nM; on JAK2 (a.a. 828-1132) (Table F), 25 to 100 nM.

For `CS(=O)(=O)N1CCN([C@H]2C[C@](CC#N)(n3cc(-c4ncnc5[nH]ccc45)cn3)C2)CC1` [Example 119, {trans-3-[4-(methylsulfonyl)piperazin-1-yl]-1-[4-(7H-pyrrolo[2,3-d]pyrimidin-4-yl)-1H-pyrazol-1-yl]cyclobutyl}acetonitrile], the values for the IC50 (in experiment [1] (Table F); against JAK2 (a.a. 828-1132) (Table F)) were less than 10 nM and 10 to 25 nM, respectively.

As for `N#CC[C@]1(n2cc(-c3ncnc4[nH]ccc34)cn2)C[C@H](N2CCN(Cc3cc(F)cc(C#N)c3)CC2)C1` [Example 1b, 3-[(4-{trans-3-(cyanomethyl)-3-[4-(7H-pyrrolo[2,3-d]pyrimidin-4-yl)-1H-pyrazol-1-yl]cyclobutyl}piperazin-1-yl)methyl]-5-fluorobenzonitrile], the IC50 was less than 10 nM in experiment [1] (Table B, read-out: JAK1 IC50) and 25 to 100 nM at JAK2 (a.a. 828-1132) (Table B, read-out: JAK2 IC50).

As for `C[C@@H](NC(=O)N1CCN([C@H]2C[C@](CC#N)(n3cc(-c4ncnc5[nH]ccc45)cn3)C2)CC1)C(F)(F)F` [Example 113, 4-{trans-3-(cyanomethyl)-3-[4-(7H-pyrrolo[2,3-d]pyrimidin-4-yl)-1H-pyrazol-1-yl]cyclobutyl}-N-[(1R)-2,2,2-trifluoro-1-methylethyl]piperazine-1-carboxamide], the IC50 in experiment [1] (Table F) is less than 10 nM; against JAK2 (a.a. 828-1132) (Table F), greater than 100 nM.

For the compound `N#CC[C@]1(n2cc(-c3ncnc4[nH]ccc34)cn2)C[C@H](N2CCC(Oc3cc(CN4CCOCC4)nc(C(F)(F)F)n3)CC2)C1` [Example 149, {trans-3-(4-{[6-(morpholin-4-ylmethyl)-2-(trifluoromethyl)pyrimidin-4-yl]oxy}piperidin-1-yl)-1-[4-(7H-pyrrolo[2,3-d]pyrimidin-4-yl)-1H-pyrazol-1-yl]cyclobutyl}acetonitrile], the figures for the IC50 (in experiment [1] (Table F); on JAK2 (a.a. 828-1132) (Table F)) were 25 to 100 nM and greater than 100 nM, respectively.

With `CC[C@H]1CCCN1C(=O)N1CCN([C@H]2C[C@](CC#N)(n3cc(-c4ncnc5[nH]ccc45)cn3)C2)CC1` [Example 5, {trans-3-(4-{[(2S)-2-ethylpyrrolidin-1-yl]carbonyl}piperazin-1-yl)-1-[4-(7H-pyrrolo[2,3-d]pyrimidin-4-yl)-1H-pyrazol-1-yl]cyclobutyl}acetonitrile], the concentration for half-maximal inhibition (IC50) in experiment [1] (Table B, read-out: JAK1 IC50) was less than 10 nM; at JAK2 (a.a. 828-1132) (Table B, read-out: JAK2 IC50), greater than 100 nM.

With `CN(C)Cc1cc(C#N)cc(C(=O)N2CCN([C@H]3C[C@@](CC#N)(n4cc(-c5ncnc6[nH]ccc56)cn4)C3)CC2)c1` [Example 42, 3-[(4-{cis-3-(cyanomethyl)-3-[4-(7H-pyrrolo[2,3-d]pyrimidin-4-yl)-1H-pyrazol-1-yl]cyclobutyl}piperazin-1-yl)carbonyl]-5-[(dimethylamino)methyl]benzonitrile], the IC50 in experiment [1] (Table F) was less than 10 nM; at JAK2 (a.a. 828-1132) (Table F), greater than 100 nM.

As to `N#CC[C@]1(n2cc(-c3ncnc4[nH]ccc34)cn2)C[C@H](N2CCC(Oc3cc(CN4CCC[C@H]4CO)cc(C(F)(F)F)n3)CC2)C1` [Example 161, {trans-3-(4-{[4-{[(2S)-2-(hydroxymethyl)pyrrolidin-1-yl]methyl}-6-(trifluoromethyl)pyridin-2-yl]oxy}piperidin-1-yl)-1-[4-(7H-pyrrolo[2,3-d]pyrimidin-4-yl)-1H-pyrazol-1-yl]cyclobutyl}acetonitrile], the IC50 is less than 10 nM in experiment [1] (Table F) and 25 to 100 nM against JAK2 (a.a. 828-1132) (Table F).

Regarding `CC(C)N(C)C(=O)N1CCN([C@H]2C[C@](CC#N)(n3cc(-c4ncnc5[nH]ccc45)cn3)C2)CC1` [Example 79, 4-{trans-3-(cyanomethyl)-3-[4-(7H-pyrrolo[2,3-d]pyrimidin-4-yl)-1H-pyrazol-1-yl]cyclobutyl}-N-isopropyl-N-methylpiperazine-1-carboxamide], the IC50 in experiment [1] (Table F) was 25 to 100 nM; against JAK2 (a.a. 828-1132) (Table F), greater than 100 nM.

With `CN(C)Cc1cc(OC2CCN([C@H]3C[C@](CC#N)(n4cc(-c5ncnc6[nH]ccc56)cn4)C3)CC2)nc(C(F)(F)F)n1` [Example 142, {trans-3-(4-{[6-[(dimethylamino)methyl]-2-(trifluoromethyl)pyrimidin-4-yl]oxy}piperidin-1-yl)-1-[4-(7H-pyrrolo[2,3-d]pyrimidin-4-yl)-1H-pyrazol-1-yl]cyclobutyl}acetonitrile], the IC50 in experiment [1] (Table F) is 10 to 25 nM; against JAK2 (a.a. 828-1132) (Table F) it was greater than 100 nM.

Turning to `CNCc1cc(C(=O)N2CCN([C@H]3C[C@](CC#N)(n4cc(-c5ncnc6[nH]ccc56)cn4)C3)CC2)nc(C(F)(F)F)c1` [Example 68, {trans-3-(4-{[4-[(methylamino)methyl]-6-(trifluoromethyl)pyridin-2-yl]carbonyl}piperazin-1-yl)-1-[4-(7H-pyrrolo[2,3-d]pyrimidin-4-yl)-1H-pyrazol-1-yl]cyclobutyl}acetonitrile], the half-inhibitory concentration (IC50) in experiment [1] (Table F) is less than 10 nM; against JAK2 (a.a. 828-1132) (Table F), 10 to 25 nM.

With `CC(C)[C@@H](C)NC(=O)N1CCN([C@H]2C[C@@](CC#N)(n3cc(-c4ncnc5[nH]ccc45)cn3)C2)CC1` [Example 110, 4-{cis-3-(cyanomethyl)-3-[4-(7H-pyrrolo[2,3-d]pyrimidin-4-yl)-1H-pyrazol-1-yl]cyclobutyl}-N-[(1R)-1,2-dimethylpropyl]piperazine-1-carboxamide], the IC50 in experiment [1] (Table F) is less than 10 nM; on JAK2 (a.a. 828-1132) (Table F), greater than 100 nM.
